Data: patent US20250197357A1, “PPARG INVERSE AGONISTS AND USES THEREOF” (Flare Therapeutics Inc., priority 2022, published 2025)

Columns and labels:
[1] = biological target: T1, PPARG/RXRA LBD heterodimer (Homo sapiens, UniProt P37231); assay: PPARγ-NCOR1 recruitment assay (TR-FRET); format: binding; conditions: NCOR1 ID2 peptide, 80 nM Rosiglitazone, 3 hours, read-out: PPARG - NCOR recruitment assay EC50
T1 construct: 2 nM WT PPARG LBD (e. coli expressed, His-TEV-Q203-Y477); fused on or other part: N-terminal His tag with TEV site on the PPARG LBD
Procedure: Compound potency (EC50) and maximal extent of NCOR1 recruitment to PPARG were assessed a TR-FRET binding assay measuring association of a biotinylated NCOR1 ID2 peptide (Biotin-[…]-amide) to PPARG/RXRA LBD heterodimer. Specifically, a 20 microliters of TR-FRET master mix consisting of 2 nM WT PPARG LBD (e. coli expressed, His-TEV-Q203-Y477; Uniprot ID P37231-2), 2 nM WT RXRA LBD or mutant S427F RXRA LBD (e. coli expressed, Flag-TEV-E228-T462; […]. Mixtures were incubated for 3 hours and read in an EnVision plate reader (Perkin Elmer) with Ex/Em 615/665. To determine the potency (EC50) and extent of NCOR1 recruitment, TR-FRET ratios were normalized to the average ratio of DMSO control wells (0%) and to the average maximum ratio for positive control compound (T0070907 (2-chloro-5-nitro-N-4-pyridinyl-benzamide); defined as 100%) in CDD Vault and analyzed using the Levenberg-Marquardt algorithm.
T1 sequence (O75376 2251-2273 limits assumed, one chain of several, further chain): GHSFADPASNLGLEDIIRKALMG

[2] = biological target: T2, PPARG/RXRA LBD heterodimer (Homo sapiens, UniProt P37231); assay: PPARγ-MED1 blockade assay (TR-FRET); format: binding; conditions: MED1 LxxLL peptide, 80 nM Rosiglitazone, 3 hours
T2 construct: His-TEV-Q203-Y477; Uniprot ID P37231-2; made in house; host or cells: E. coli
T2 sequence (P37231 203-477 isoform P37231-2): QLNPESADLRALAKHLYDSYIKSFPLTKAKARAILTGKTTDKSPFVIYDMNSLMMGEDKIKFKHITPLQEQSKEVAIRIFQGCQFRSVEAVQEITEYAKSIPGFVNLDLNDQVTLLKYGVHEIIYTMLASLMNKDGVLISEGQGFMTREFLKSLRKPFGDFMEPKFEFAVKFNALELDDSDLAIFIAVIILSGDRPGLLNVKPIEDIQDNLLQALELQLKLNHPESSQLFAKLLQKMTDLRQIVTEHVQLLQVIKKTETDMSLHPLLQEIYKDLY
T2 sequence (P19793 228-462 partner limits assumed): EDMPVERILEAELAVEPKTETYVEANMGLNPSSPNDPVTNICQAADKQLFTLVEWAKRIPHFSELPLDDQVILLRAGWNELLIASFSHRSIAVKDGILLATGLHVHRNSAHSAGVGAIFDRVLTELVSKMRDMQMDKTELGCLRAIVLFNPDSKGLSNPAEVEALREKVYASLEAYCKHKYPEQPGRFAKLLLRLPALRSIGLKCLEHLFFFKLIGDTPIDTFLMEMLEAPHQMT
Procedure: Compound potency (IC50) and maximal extent of MED1 repulsion to PPARG were assessed a TR-FRET binding assay measuring association of a biotinylated MED1 LxxLL peptide (Biotin—[…]-amide) to PPARG/RXRA LBD heterodimer. Specifically, a 20 microliters of TR-FRET master mix consisting of 2 nM WT PPARG LBD (e. coli expressed, His-TEV-Q203-Y477; Uniprot ID P37231-2), 2 nM WT RXRA LBD (e. coli expressed, Flag-TEV-E228-T462; […]. Mixtures were incubated for 3 hours and read in an EnVision plate reader (Perkin Elmer) with Ex/Em 615/665. To determine the potency (IC50) and extent of MED1 repulsion, TR-FRET ratios were normalized to the average ratio of DMSO control wells (0%) and to the average minimum ratio for positive control compound (GW9662 (2-chloro-5-nitrobenzanilide); defined as 100%) in CDD Vault and analyzed using the Levenberg-Marquardt algorithm.

[3] = test system: ANGPTL4, a PPARG target gene, in HT1197 (RXRA S427F mutation) cells; assay: Bladder cancer pharmacodynamic assay (HT1197 cell assay, qPCR of PPARG target genes); format: cell-based; conditions: Homo sapiens; for inhibition at 0.1 µM: 100 nM compound, 24 hours, relative to DMSO control; for EC50: 24 hours treatment, qPCR
Procedure: 5637 (PPARG amplified) and HT1197 (RXRA S427F mutation) cells were used for assessment of modulation of PPARG target genes using quantitative PCR. Cells were treated for 24 hours with PPARG inverse agonists prior to analysis of FABP4 (IDT, Cat: Hs.PT 58.20106818) and ANGPTL4 (IDT, Cat: Hs.PT 58.25480012) expression, with expression of the housekeeping gene TBP (IDT, Cat: Hs.PT 58v.39858774) used to normalize expression across samples. Quantitative PCR was performed using an ABI QuantStudio 7 Flex Reaction system. Data were analyzed and reported relative to DMSO control using the comparative Ct method (ΔΔCt).

Structure (SMILES)	EC50 [1] [nM]	EC50 [2] [nM]	inhibition at 0.1 µM [3] [%]	EC50 [3] [nM]
N#Cc1ccc(SC(F)(F)F)c(C(=O)Nc2cc(F)cc(Oc3ccc(Cl)cc3)c2)c1 [Example 26, N-(3-(4-chlorophenoxy)-5-fluorophenyl)-5-cyano-2-((trifluorometh-yl)thio)benzamide]	100 to 1000	100 to 1000	-160	
CS(=O)(=O)c1ccc(C#N)cc1C(=O)Nc1ccc(C#N)c(C(F)(F)F)c1 [Example 7, 5-cyano-N-(4-cyano-3-(trifluorometh-yl)phenyl)-2-(methylsulfonyl) benzamide]	1000 to 10000	1000 to 10000	77	
CS(=O)(=O)c1ccc(C#N)cc1C(=O)Nc1ccc(C(F)(F)F)c(C#N)c1 [Example 10, 5-cyano-N-(3-cyano-4-(trifluorometh-yl)phenyl)-2-(methylsulfonyl) benzamide]	100 to 1000	100 to 1000	48	
N#Cc1ccc(S(=O)(=O)CC(F)(F)F)c(C(=O)Nc2cc(F)cc(F)c2)c1 [Example 33, 5-cyano-N-(3,5-difluorophenyl)-2-((2,2,2-trifluoroethyl)sulfonyl)benzamide]	1000 to 10000	1000 to 10000	19	
N#Cc1ccc(SC(F)(F)F)c(C(=O)Nc2cc(Cl)cc(Cl)c2)c1 [Example 15, 5-cyano-N-(3,5-dichlorophenyl)-2-((trifluorometh-yl)thio)benzamide]	10 to 100	10 to 100	46	
CN1Cc2ccc(-c3c(F)cc(NC(=O)c4cc(C#N)ccc4SC(F)(F)F)cc3F)cc2C1=O [Example 27, 5-cyano-N-(3,5-difluoro-4-(2-methyl-3-oxoisoindolin-5-yl)phenyl)-2-((trifluorometh-yl)thio)benzamide]	100 to 1000	100 to 1000	79	
N#Cc1cc(C(=O)Nc2cc(F)cc(F)c2)c(S(=O)(=O)CC(F)(F)F)cn1 [Example 34, 2-cyano-N-(3,5-difluorophenyl)-5-((2,2,2-trifluoroethyl)sulfonyl) isonicotinamide]	100 to 1000	100 to 1000	59	
CS(=O)(=O)c1ccc(C#N)cc1C(=O)Nc1ccn2nccc2c1 [Example 20, 5-cyano-2-(methylsulfonyl)-N-(pyrazolo[1,5-a]pyridin-5-yl)benzamide]	> 10000	> 10000	0	
Cc1cc(NC(=O)c2cc(C#N)ccc2S(C)(=O)=O)cnc1C(F)(F)F [Example 30, 5-cyano-N-(5-methyl-6-(trifluorometh-yl)pyridin-3-yl)-2-(methylsulfonyl) benzamide]	1000 to 10000	1000 to 10000	42	
N#Cc1ccc(SC(F)(F)F)c(C(=O)Nc2ccnc(C(F)(F)F)c2)c1 [Example 24, 5-cyano-N-(2-(trifluorometh-yl)pyridin-4-yl)-2-((trifluorometh-yl)thio)benzamide]	1000 to 10000	1000 to 10000	49	
CS(=O)(=O)c1ccc(C#N)cc1C(=O)Nc1cc(F)cc(Oc2ccc(Cl)cc2)c1 [Example 16, N-(3-(4-chlorophenoxy)-5-fluorophenyl)-5-cyano-2-(methylsulfonyl) benzamide]	10 to 100	10 to 100		
CS(=O)(=O)c1ccc(C#N)cc1C(=O)Nc1cc(F)cc(C#N)c1 [Example 25, 5-cyano-N-(3-cyano-5-fluorophenyl)-2-(methylsulfonyl) benzamide]	100 to 1000	100 to 1000	77	
CS(=O)(=O)c1ccc(C#N)cc1C(=O)Nc1ccc(C#N)c(Cl)c1 [Example 1, N-(3-chloro-4-cyanophenyl)-5-cyano-2-(methylsulfonyl)benzamide]	100 to 1000	100 to 1000	86	5.2
CN1Cc2ccc(-c3c(F)cc(NC(=O)c4cc(C#N)ccc4S(C)(=O)=O)cc3F)cc2C1=O [Example 11, 5-cyano-N-(3,5-difluoro-4-(2-methyl-3-oxoisoindolin-5-yl)phenyl)-2-(methylsulfonyl) benzamide]	10 to 100	100 to 1000	79	1.3
N#Cc1ccc(SC(F)(F)F)c(C(=O)Nc2cc(F)c(-c3ccc(C(F)F)nc3)c(F)c2)c1 [Example 2, 5-cyano-N-(4-(6-(difluoromethyl)pyridin-3-yl)-3,5-difluorophenyl)-2-((trifluorometh-yl)thio)benzamide]	100 to 1000	100 to 1000	83	
CS(=O)(=O)c1ccc(C#N)cc1C(=O)Nc1ccnc(C(F)(F)F)c1 [Example 9, 5-cyano-2-(methylsulfonyl)-N-(2-(trifluorometh-yl)pyridin-4-yl)benzamide]	1000 to 10000	1000 to 10000	64	
Cn1cc(-c2c(F)cc(NC(=O)c3cc(C#N)ccc3SC(F)(F)F)cc2F)cn1 [Example 29, 5-cyano-N-(3,5-difluoro-4-(1-methyl-1H-pyrazol-4-yl)phenyl)-2-((trifluorometh-yl)thio)benzamide]	100 to 1000	100 to 1000	65	
CS(=O)(=O)c1ccc(C#N)cc1C(=O)Nc1ccc(C#N)c(F)c1 [Example 21, 5-cyano-N-(4-cyano-3-fluorophenyl)-2-(methylsulfonyl) benzamide]	1000 to 10000	1000 to 10000	79	
CS(=O)(=O)c1cnc(C#N)cc1C(=O)Nc1ccnc(C(F)(F)F)c1 [Example 32, 2-cyano-5-(methylsulfonyl)-N-(2-(trifluoromethyl)py-ridin-4-yl)isonicotinamide]	100 to 1000	100 to 1000	80	
CS(=O)(=O)c1ccc(C#N)cc1C(=O)Nc1cc(F)c(-c2ccc3c(c2)C(=O)NC3)c(F)c1 [Example 23, 5-cyano-N-(3,5-difluoro-4-(3-oxoisoindolin-5-yl)phenyl)-2-(methylsulfonyl) benzamide]	10 to 100	10 to 100	19	
CS(=O)(=O)c1ccc(C#N)cc1C(=O)Nc1ccc2ccncc2c1 [Example 22, 5-cyano-N-(isoquinolin-7-yl)-2-(methylsulfonyl) benzamide]	> 10000	> 10000	0	
CC(=O)N1CCN(c2ccc(NC(=O)c3cc(C#N)ccc3S(C)(=O)=O)cn2)CC1 [Example 18, N-(6-(4-acetylpiperazin-1-yl)pyridin-3-yl)-5-cyano-2-(methylsulfonyl) benzamide]	> 10000	> 10000	13	
CS(=O)(=O)c1ccc(C#N)cc1C(=O)Nc1cc(F)c(-c2ccc(C(F)F)nc2)c(F)c1 [Example 13, 5-cyano-N-(4-(6-(difluoromethyl)pyridin-3-yl)-3,5-difluorophenyl)-2-(methylsulfonyl) benzamide]	100 to 1000	100 to 1000	80	2.9
